Test results published in US20230279002A1, “Polymorphs of Crystalline Forms of 3,10-dimethoxy-5,8,13,13a-tetrahydro-6H-isoquinolino[3,2-a]isoquinolin-9-yl 3-fluorobenzenesulfonate and Salts Thereof” (CVI Pharmaceuticals Limited, priority 2020, published 2023).
≈ marks a conversion by molar mass, not a printed value.

Experiments:
Type in all cases: physicochemical
[1] = Apparent solubility in organic solvents (visual); conditions: for solubility: thermodynamic from solid
Description: Solubility: 2a substance was equilibrated with organic solvents to visually test the apparent solubility. The experiment was terminated once or if the target of 20 mg/mL was achieved.

[2] = Crystallization from hot saturated solutions, solid form by XRPD; conditions: for Solid form: EtOH, XRPD
Description: Crystallization from hot saturated solutions: About 100 mg 2a was dissolved with minimal amount of solvent at about 60° C. The solution was filtrated and separated into two portions. One portion was put in ice bath and agitated till the end of the experiment; the other portion was cooled down naturally. The precipitates were collected on a filter, dried and analyzed by XRPD.

[3] = Solvent evaporation, solid form by XRPD
Description: Solvent evaporation: About 20 mg 2a was dissolved in organic solvents. The solution was filtrated and dried in the air. The obtained solid part from the evaporation process was analyzed by XRPD.

[4] = Precipitation by addition of anti-solvent, solid form by XRPD
Description: The precipitates were collected and analyzed by XRPD.
2a was dissolved in ACN or MeOH, and water or heptane was added as anti-solvent. […] The XRPD pattern of compound 2a (bottom) and compound 2a dissolved in ACN then precipitated with heptane (top) is shown in FIG. 6. The XRPD pattern of compound 2a (bottom trace) and compound 2a dissolved in MeOH then precipitated with heptane (top trace) or water (center trace) is shown in FIG. 7.

[5] = Equilibration with solvent at 25° C. and 50° C. (slurry), solid form by XRPD
Description: Equilibration with solvent at 25° C. and 50° C.: About 50 mg of 2a was equilibrated with 1 ml solvents at 25° C. and 50° C. After stirring for 1 day and 7 days, the suspensions were centrifuged. The solid part was collected and analyzed by XRPD, then dried in the air for 10 min and analyzed by XRPD. After equilibrium with solvent at 25° C. and 50° C. for 1 and 7 days, the crystal form was not changed. […] The XRPD spectra of the solid equilibrated with each solvent listed in Table 12, at 25° C. and 50° C., are shown overlaid that of undisturbed 2a in FIG. 8 through FIG. 14.

solubility ([1]; 50% EtOH (aq), aqueous with cosolvent or surfactant or cyclodextrin): < 990 µg/mL
Solubility (mg/ml) ([1]; ACN): 6.17~18.5 mg/ml
solubility ([1]; EtOH, organic solvent or mixture): 2100 to 3150 µg/mL (≈ 4.47 to 6.71 mM)
solubility ([1]; THF, organic solvent or mixture): < 1140 µg/mL
solubility ([1]; acetone, organic solvent or mixture): 2220 to 3330 µg/mL (≈ 4.73 to 7.09 mM)
solubility ([1]; acetonitrile, organic solvent or mixture, ACN): 6170 to 18500 µg/mL (≈ 13.1 to 39.4 mM)
solubility ([1]; ethyl acetate, organic solvent or mixture): < 1800 µg/mL
solubility ([1]; heptane, organic solvent or mixture): < 1430 µg/mL
solubility ([1]; methanol, organic solvent or mixture, MeOH): > 17000 µg/mL
solubility ([1]; water): < 1080 µg/mL
Solid form ([2]; quick (ice bath)): partially crystalline
Solid form ([2]; slow (cooled down naturally)): no crystal, failed
Solid form after crystallization from hot saturated solutions ([2]; dissolved at about 60° C., cooled): partially crystalline
Solid form after evaporation ([3]; ACN): Amorphous
Solid form after evaporation ([3]; Acetone): Amorphous
Solid form after evaporation ([3]; EtOH): Amorphous
Solid form after evaporation ([3]; MeOH): Amorphous
Crystal form after precipitation by anti-solvent ([4]; heptane as anti-solvent (ACN or MeOH solution)): not changed
Solid form ([4]; solvent ACN, anti-solvent Heptane (6 volumes)): Crystal, no change
Solid form ([4]; solvent ACN, anti-solvent Water (6 volumes)): No crystal, failed
Solid form ([4]; solvent MeOH, anti-solvent Heptane (3 volumes)): Crystal, no change
Solid form ([4]; solvent MeOH, anti-solvent Water (2 volumes)): Amorphous
Crystal form after precipitation by anti-solvent ([4]; water added to MeOH solution): transformed to amorphous
Crystal form after equilibration with solvent ([5]; 25° C. and 50° C., 1 and 7 days): not changed
Slurry solid form ([5]; 50% EtOH (aq), 25° C.-1 day): Crystal, no change
Slurry solid form ([5]; 50% EtOH (aq), 25° C.-7 day): Crystal, no change
Slurry solid form ([5]; 50% EtOH (aq), 50° C.-1 day): partially crystalline
Slurry solid form ([5]; ACN, 25° C.-1 day): Crystal, no change
Slurry solid form ([5]; ACN, 25° C.-7 day): Crystal, no change
Slurry solid form ([5]; ACN, 50° C.-1 day): Crystal, no change
Slurry solid form ([5]; Acetone, 25° C.-1 day): Crystal, no change
Slurry solid form ([5]; Acetone, 25° C.-7 day): Crystal, no change
Slurry solid form ([5]; Acetone, 50° C.-1 day): Crystal, no change
Slurry solid form ([5]; EtOAc, 25° C.-1 day): Crystal, no change
Slurry solid form ([5]; EtOAc, 25° C.-7 day): Crystal, no change
Slurry solid form ([5]; EtOAc, 50° C.-1 day): Crystal, no change
Slurry solid form ([5]; EtOH, 25° C.-1 day): Crystal, no change
Slurry solid form ([5]; EtOH, 25° C.-7 day): Crystal, no change
Slurry solid form ([5]; EtOH, 50° C.-1 day): Crystal, no change
Slurry solid form ([5]; IPA, 25° C.-1 day): Crystal, no change
Slurry solid form ([5]; IPA, 25° C.-7 day): Crystal, no change
Slurry solid form ([5]; MeOH, 25° C.-1 day): Crystal, no change
Slurry solid form ([5]; MeOH, 25° C.-7 day): Crystal, no change
Slurry solid form ([5]; MeOH, 50° C.-1 day): Clear solution
Slurry solid form ([5]; THF, 25° C.-1 day): Crystal, no change
Slurry solid form ([5]; THF, 25° C.-7 day): Crystal, no change
Slurry solid form ([5]; THF, 50° C.-1 day): Crystal, no change
Slurry solid form ([5]; Water, 25° C.-1 day): Crystal, no change
Slurry solid form ([5]; Water, 25° C.-7 day): Crystal, no change
Slurry solid form ([5]; Water, 50° C.-1 day): partially crystalline
Structure (SMILES): COc1ccc2c(c1)CCN1Cc3c(ccc(OC)c3OS(=O)(=O)c3cccc(F)c3)C[C@H]21 [Compound 2a]
